Experimental data published in paper PMC6167002 (Journal of Medicinal Chemistry, 2018).

Each molecule was assayed against T1, TbNMT (Trypanosoma brucei N-myristoyltransferase) (Trypanosoma brucei, UniProt Q388H8) (assay: scintillation proximity assay with [3H]myristoyl-CoA and biotinylated CAP5.[…] peptide). Settings: not given.
T1 construct: gene Tb10.61.2550
Type: biochemical

T1 sequence (Q388H8 entry or part of it): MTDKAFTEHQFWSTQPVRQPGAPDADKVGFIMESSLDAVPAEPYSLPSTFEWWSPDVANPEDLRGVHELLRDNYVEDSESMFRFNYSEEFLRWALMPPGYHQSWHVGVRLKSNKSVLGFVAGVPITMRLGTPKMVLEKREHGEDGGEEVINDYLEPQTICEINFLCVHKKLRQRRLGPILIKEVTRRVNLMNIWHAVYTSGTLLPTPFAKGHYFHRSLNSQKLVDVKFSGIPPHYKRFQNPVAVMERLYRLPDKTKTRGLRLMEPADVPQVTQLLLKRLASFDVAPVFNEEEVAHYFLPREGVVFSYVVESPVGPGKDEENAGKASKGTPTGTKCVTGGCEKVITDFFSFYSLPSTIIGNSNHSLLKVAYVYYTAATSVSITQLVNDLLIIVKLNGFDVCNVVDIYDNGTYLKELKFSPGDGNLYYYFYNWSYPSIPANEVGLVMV

CC(C)Cc1ccc2ncccc2c1NS(=O)(=O)c1ccc(CCCCC2CCN(C)CC2)cc1 [compound 32, N-(6-Isobutylquinolin-5-yl)-4-(4-(1-methylpiperidin-4-yl)butyl)benzenesulfonamide] and CC(C)Cc1ccc2nn(C)cc2c1NS(=O)(=O)c1ccc(CCCCC2CCN(C)CC2)cc1 [compound 54, N-(5-Isobutyl-2-methyl-2H-indazol-4-yl)-4-(4-(1-methylpiperidin-4-yl)butyl)benzenesulfonamide] cannot be ordered by IC50: less than 5 nM for the first, less than 5 nM for the second.

Molecule CC(C)Cc1ccc2nn(C)cc2c1NS(=O)(=O)c1ccc(CCCO[C@@H]2C[C@H]3CC[C@@H](C2)N3C)cc1 [compound 60] has an IC50 of 5 nM.

The molecules below were run on T2, T. brucei (assay: microbe, parasite or virus in culture). Settings: Trypanosoma brucei, 73 h.
T2 construct: s427
Parameters: species or system T. b. brucei s427 bloodstream form; bloodstream T. b. brucei viability, resazurin fluorescence
Procedure: T.brucei cell viability assays were carried out as described previously.[6] In brief, bloodstream T. b. brucei s427 was cultured at 37 °C in modified HMI9 medium (56 μM 1-thioglycerol was substituted for 200 μM 2-mercaptoethanol) and quantified using a hemocytometer. Cell culture plates were stamped with 1 μL of an appropriate concentration of test compound in DMSO followed by the addition of 200 μL of trypanosome culture (10^4 cells ml^–1) to each well except for one column that received media only. Culture plates of T. brucei cells were incubated at 37 °C in an atmosphere of 5% CO2 for 69 h before the addition of 20 μL of resazurin (final concentration, 50 μM). After a further 4 h incubation, fluorescence was measured (excitation 528 nm; emission 590 nm) using a BioTek flx800 plate reader.

CC(C)Cc1ccc2ncccc2c1NS(=O)(=O)c1ccc(CCCC2CCNCC2)cc1 [S1, N-(6-isobutylquinolin-5-yl)-4-(3-(piperidin-4-yl)propyl)benzenesulfonamide] and CC(C)Cc1ccc2ncccc2c1NS(=O)(=O)c1ccc(CCCCC2CCNCC2)cc1 [compound 33, N-(6-isobutylquinolin-5-yl)-4-(4-(piperidin-4-yl)butyl)benzenesulfonamide] are within 1.5-fold of each other in EC50: 25 nM for the first, 21 nM for the second.

Compared with CC(C)Cc1ccc2ncccc2c1NS(=O)(=O)c1ccc(CCCN2CCN3CCC[C@H]3C2)cc1 [S2, (S)-4-(3-(hexahydropyrrolo[1,2-a]pyrazin-2(1H)-yl)propyl)-N-(6-isobutylquinolin-5-yl)benzenesulfonamide], CC(C)Cc1ccc2ncccc2c1NS(=O)(=O)c1ccc(CCCN2CCN3CCC[C@@H]3C2)cc1 [compound 34, (R)-4-(3-(hexahydropyrrolo[1,2-a]pyrazin-2(1H)-yl)propyl)-N-(6-isobutylquinolin-5-yl)benzenesulfonamide] is 3.8-fold lower in EC50: 150 nM for the first, 40 nM for the second. The second is the more potent here.

CC(C)Cc1ccc2ncccc2c1NS(=O)(=O)c1ccc(CCCOC[C@@H]2CCCCN2)cc1 [S3, (S)-N-(6-isobutylquinolin-5-yl)-4-(3-(piperidin-2-ylmethoxy)propyl)benzenesulfonamide] and CC(C)Cc1ccc2ncccc2c1NS(=O)(=O)c1ccc(CCCOC[C@H]2COCCN2)cc1 [S5, (S)-N-(6-isobutylquinolin-5-yl)-4-(3-(morpholin-3-ylmethoxy)propyl)benzenesulfonamide] are within 1.5-fold of each other in EC50: 850 nM for the first, 710 nM for the second.

Compared with CC(C)Cc1ccc2ncccc2c1NS(=O)(=O)c1ccc(CCCOC[C@@H]2CCCN(C)C2)cc1 [S4, (R)-N-(6-isobutylquinolin-5-yl)-4-(3-((1-methylpiperidin-3-yl)methoxy)propyl)benzenesulfonamide], CC(C)Cc1ccc2ncccc2c1NS(=O)(=O)c1ccc(CCCO[C@@H]2CCCN(C)C2)cc1 [compound 43, (R)-N-(6-isobutylquinolin-5-yl)-4-(3-((1-methylpiperidin-3-yl)oxy)propyl)benzenesulfonamide] is 3.9-fold higher in EC50: 10 nM for the first, 39 nM for the second.

Going from CC(C)Cc1ccc2ncccc2c1NS(=O)(=O)c1ccc(CCCOC[C@H]2COCCN2C)cc1 [S6, (S)-N-(6-isobutylquinolin-5-yl)-4-(3-((4-methylmorpholin-3-yl)methoxy)propyl)benzenesulfonamide] to CC(C)Cc1ccc2ncccc2c1NS(=O)(=O)c1ccc(CCCOC[C@@H]2CNCCO2)cc1 [compound 44, (S)-N-(6-isobutylquinolin-5-yl)-4-(3-(morpholin-2-ylmethoxy)propyl)benzenesulfonamide], the EC50 falls from 250 nM to 39 nM (6.4-fold).

First: CC(C)Cc1ccc2ncccc2c1NS(=O)(=O)c1ccc(CCCC2CCN(C)CC2)cc1 [compound 31, N-(6-isobutylquinolin-5-yl)-4-(3-(1-methylpiperidin-4-yl)propyl)benzenesulfonamide]
Second: CC(C)Cc1ccc2ncccc2c1NS(=O)(=O)c1ccc(CCCCC2CCN(C)CC2)cc1 [compound 32, N-(6-Isobutylquinolin-5-yl)-4-(4-(1-methylpiperidin-4-yl)butyl)benzenesulfonamide]
The EC50 of the first is 2.1-fold lower: 9 nM for the first, 19 nM for the second. The first is the more potent here.

Compared with CC(C)Cc1ccc2ncccc2c1NS(=O)(=O)c1ccc(CCCCN2CCN3CCC[C@@H]3C2)cc1 [compound 35, (R)-4-(4-(hexahydropyrrolo[1,2-a]pyrazin-2(1H)-yl)butyl)-N-(6-isobutylquinolin-5-yl)benzenesulfonamide], CC(C)Cc1ccc2ncccc2c1NS(=O)(=O)c1ccc(CCCCN2CCCN(C)CC2)cc1 [compound 37, N-(6-isobutylquinolin-5-yl)-4-(4-(4-methyl-1,4-diazepan-1-yl)butyl)benzenesulfonamide] is 4.2-fold lower in EC50: 250 nM for the first, 59 nM for the second. The second is the more potent here.

Compared with CC(C)Cc1ccc2ncccc2c1NS(=O)(=O)c1ccc(CCCN2CCCN(C)CC2)cc1 [compound 36, N-(6-isobutylquinolin-5-yl)-4-(3-(4-methyl-1,4-diazepan-1-yl)propyl)benzenesulfonamide], CC(C)Cc1ccc2ncccc2c1NS(=O)(=O)c1ccc(CCCN2CCN(C)CC2)cc1 [compound 38, N-(6-isobutylquinolin-5-yl)-4-(3-(4-methylpiperazin-1-yl)propyl)benzenesulfonamide] is 4.7-fold higher in EC50: 18 nM for the first, 84 nM for the second.

Going from CC(C)Cc1ccc2ncccc2c1NS(=O)(=O)c1ccc(CCCCN2CCNCC2)cc1 [compound 39, N-(6-isobutylquinolin-5-yl)-4-(4-(piperazin-1-yl)butyl)benzenesulfonamide] to CC(C)Cc1ccc2ncccc2c1NS(=O)(=O)c1ccc(CCCCN2C[C@@H](C)N[C@@H](C)C2)cc1 [compound 40, 4-(4-((3S,5R)-3,5-dimethylpiperazin-1-yl)butyl)-N-(6-isobutylquinolin-5-yl)benzenesulfonamide], the EC50 rises from 180 nM to 350 nM (1.9-fold).

Compared with CC(C)Cc1ccc2ncccc2c1NS(=O)(=O)c1ccc(CCCO[C@@H]2C[C@H]3CC[C@@H](C2)N3C)cc1 [compound 41, 41], CC(C)Cc1ccc2ncccc2c1NS(=O)(=O)c1ccc(CCCO[C@H]2C[C@H]3CC[C@@H](C2)N3C)cc1 [compound 42, 42] is 10-fold lower in EC50: 91 nM for the first, 9 nM for the second.
